Experimental data published in patent US10955352B2, “Method for assessing a state of a living cell” (Agency for Science, Technology and Research, priority 2016, dated 2021).

System: HeLa cells
Experiment: SERS detection and quantification of sialic acid on single living HeLa cells with DBA tag (HC-PCF)
Format: cell-based
Procedure: HeLa cells were cultured in Dulbecco's modified eagle medium (DMEM) with 1% penicillin streptomycin (Gibco) and 10% fetal bovine serum (Gibco) in the dark with 5% CO2 and 37° C. until they were confluent. The cells were then harvested by adding 1×EDTA trypsin of appropriate volume for 4 min, followed by addition of DMEM of double that volume to neutralize the trypsin. The harvested cells were centrifuged at 1,500 rpm for 3 mins. The supernatant was removed and the cells were suspended with DMEM to achieve a cell concentration of 5000 cells/ml. Two milliliter of cell suspension was seeded per well in a six-well plate and allowed to grow for 48 hours.
After incubation, DMEM was removed from each well and the adhered cells were rinsed lightly with 1×PBS which was subsequently removed. Four wells were used in our experiment. In order to reduce the probability of DBA binding onto sites of sialic acid on the surface of the cell membrane, thus mimicking a cell with lowered sialic acid level, 10 mM of phenyl-boronic acid (PBA) (Sigma Aldrich) dissolved in DMEM and 1% DMSO (Merck Millipore) were added to one well (Well A) and left to incubate for 24 hours. […]
Post-incubation washing was performed for all the wells and 10 mM of DBA (Sigma Aldrich) dissolved in DMEM and 1% DMSO was added into wells A, B and C, with incubation time of 4 hours. […] Supernatant were removed after centrifugation and the cells are ready for SERS sample preparation. […]
SERS spectra were recorded using a Raman microscope system (Renishaw InVia) with a 633 nm excitation laser and equipped with a grating (spectral resolution of about 1.8 cm^−1). […]
In order to calculate the amount of sialic acid on cell for Sialic acid and (+)Sialic acid samples, intensity of the 2,000 cm^−1 peak was obtained from the SERS measurement (FIG. 10A). […] The number of sialic acid molecules may be quantified by estimating the amount of DBA molecules from the trend line as the binding between DBA molecule to the sialic acid molecule is one by one. […]

Structure (SMILES) | 2,000 cm^-1 peak in Raman spectrum (DBA binding to sialic acid) after pre-treatment (HeLa cells, 10 mM PBA 24 hours, then 10 mM DBA 4 hours) | calculated sialic acid amount on a single HeLa cell (5 μM prednisolone 72 hours, then 10 mM DBA 4 hours, estimated from DBA calibration curve of 2,000 cm^-1 peak) [fmol] | intensity at 2,000 cm^-1 (DBA alkyne peak, sialic acid expression) versus positive control (HeLa cells, 5 μM prednisolone 72 hours, then DBA)
OB(O)c1ccccc1 [PBA, phenyl-boronic acid] | negligible presence of that peak | – | –
C[C@]12C=CC(=O)C=C1CC[C@@H]1[C@@H]2[C@@H](O)C[C@@]2(C)[C@H]1CC[C@]2(O)C(=O)CO [prednisolone] | – | 6.782 | higher than that of the positive control
